Earlier results, collected in US12387828B2, “System and method for ranking options for medical treatments” (PRXCISION LLC, priority 2015, dated 2025).

[1] = model value, multiplied by (WT/70)

C[C@@H](O)[C@H]1C(=O)N2C(C(=O)O)=C(S[C@@H]3CN[C@H](C(=O)N(C)C)C3)[C@H](C)[C@H]12 [meropenem]
CLt (total clearance) (equation in CLcr (mL/min) and WT (kg)): (10.2+2.08×CLcr)×(WT/70)×0.06
CLd (distributional clearance) [1]: 18.6 L/h
Vc (volume of the central compartment) [1]: 10.8 L
Vp (peripheral compartment volume) [1]: 12.6 L
